The values that follow come from patent US20240024350A1, “ANTI-CANCER COMPOSITION CONTAINING AURANOFIN AND MERCAPTO COMPOUND AND USE THEREOF” (SUN YAT-SEN UNIVERSITY, priority 2020, published 2024).

Structures are written as SMILES. Where two headings read alike, the source gives them in different places.

Series [1] concerns A549 human lung cancer cells. Briefly: MTT colorimetric proliferation / cell survival assay, A549. Format: cell-based. How it is done: (§1) A flask with the cancer cells required for the experiment, with an original culture solution discarded, was washed for three times with 2 mL of PBS, 1 mL of pancreatin was added for digestion for 30 s, and 2 mL of a medium was added to terminate the digestion. The cells were transferred to a centrifuge tube and centrifuged at 1000 rpm for 3 min, the supernatant was discarded, and 2 mL of a medium was added and blew 10 times to be mixed uniformly. 10 μL of a cell suspension was taken for cell counting, and spread on a 96-well plate, with 5000 cells per well and 3 duplications for each compound, and then the number of cells and cell wells was calculated. The amount of required cell suspension and the number of cells for medium dilution were calculated by cell counting. 100 μL of medium was plated with 5000 cells per well, pipetted and mixed uniformly, and the cells were inoculated using a volley, placed in an incubator for culture, and marked.
(2) The cells cultured in step (1) was taken, and discarded with the original medium. Auranofin mother liquor was diluted to a diluent with final concentrations of 0, 0.78125, 1.5625, 3.125, 6.25, 12.5, 25, 50 and 100 μM, and mixed uniformly. A volley (using 3 wells) was used to draw 100 μL of dilution per well, a 96-well plate was tilted, diluents with each concentration were added in sequence to the corresponding 3 marked wells carefully to prevent poking the cells, blown and sucked about 3 times to be mixed uniformly, marked, shaken for 3 times, and put into a CO2 incubator for culture. The above steps were repeated for each auranofin diluent.
After auranofin was added for culture for 1 hour, the mother liquor of the mercapto compound was diluted into […] and mixed uniformly. A volley (using 3 wells) was used to suck 20 μL of diluent per well, the 96-well plate was tilted, the diluents of different mercapto compounds were added in sequence to the corresponding 3 marked wells carefully to prevent poking the cells, blown and sucked about 3 times to be mixed uniformly, and put back to the incubator to continue culture.
After different mercapto compounds were added to cells for 24 h, 20 μL of MTT (with a concentration of 5 mg/mL in PBS) per well was added to the 96-well plate by a volley; and incubation was carried out at 37° C. for 4 h. At the end of incubation, the MTT mixture was sucked out, and DMSO was added at 130 μL/well using a volley.
According to the results of Table 1-2, the killing effect of auranofin in combination with various compounds (with 30% FBS) on HCT116 human colon cancer cells and the killing effect of the auranofin-TGTA (50 μM) in combination with other cancer cells (lung cancer, colon cancer, breast cancer, liver cancer, cervical cancer and gastric cancer cells) were further detected by using the same method as the above.

The test system of series [2] is HCT-8 human colon adenocarcinoma cells. Briefly: MTT colorimetric proliferation assay, HCT-8. Type of series: cell-based. The following applies: containing 40 mg/mL BSA; 200 μM of added compound. On the procedure: as §1
(2) The cells cultured in step (1) was taken, and discarded with the original medium. Auranofin mother liquor was diluted to a diluent with final concentrations of 0, 0.78125, 1.5625, 3.125, 6.25, 12.5, 25, 50 and 100 μM, and mixed uniformly. […]

In series [3] the test system is HCT116 human colon cancer cells. Briefly: MTT colorimetric proliferation / cell survival assay, HCT116.
The next series concerns HepG2 cells. Briefly: Cell uptake of auranofin (gold by ICP-MS) in HepG2 cells. Type of series: cell-based, human. On the procedure:
HepG2 cells were used as a test subject.
The cells were inoculated into a 6-well plate at 2×10^5 cell/well and incubated for 24 h.
After the incubation, the cell culture medium was replaced with 30% of FBS to stimulate a high-concentration mercapto environment under the normal physiological condition, and used as a control (without adding any reagents). The experimental group was added with 3 μM of auranofin for incubation at 37° C. for 10 min and then added with the mercapto compound (DEDT, β-mercaptoethanol or mercaptoethylamine) for incubation for 1 h (final concentration of DMSO in the system was 1%). After incubation, the cells were immediately washed for 3 times with PBS, 500 μL of ultrapure water was added to each well to break the cells, and after 15 min, the cell lysate was collected.
The collected cell lysate was dissolved by adding aqua regia and diluted with ultrapure water to a proper proportion. Inductively coupled plasma mass spectrometry (ICP-MS) was used for gold detection. The cell uptake rate of 3 μM […] without FBS was used as the control.
Wherein, the above uptake is the amount of gold (mg) in 1 g protein in the cell.

Regarding `CC(=O)OC[C@H]1O[C@@H]([S-])[C@H](OC(C)=O)[C@@H](OC(C)=O)[C@@H]1OC(C)=O.CCP(CC)CC.[Au+]` [Auranofin], the “Cell survival rate (%) A549” value in series [1] (Lung cancer, TGTA 50 μM) stood at 81 ± 7%. The IC50 in series [1] (auranofin alone, without BSA/FBS, read-out: IC50 A549 Human lung cancer cells) was 4.2 µM; in series [1] (containing 40 mg/mL BSA, 200 μM of added compound, read-out: IC50 A549 Human lung cancer cells), 70.5 µM; in series [1] (under the normal physiological condition, auranofin alone, read-out: IC50 value, proliferation of A549 human lung cancer cells), > 30 µM; in series [1] (with 10% FBS, mercapto compound added 1 h after auranofin, MTT after 24 h, read-out: IC50 A549 Human lung cancer cells), 12.9 µM; in series [2], 33.2 µM; in series [3] (read-out: IC50 HCT116 Human colon cancer cells, auranofin alone, without BSA/FBS), 1 µM. The IC50 in series [3] (read-out: IC50 HCT116 Human colon cancer cells, with 10% FBS, mercapto compound added 1 h after auranofin, MTT after 24 h) is 3.4 µM; in series [3] (read-out: IC50 HCTI16 Human colon cancer cells, containing 40 mg/mL BSA, 200 μM of added compound) it was 30 µM; in series [3] (read-out: IC50 value, proliferation of HCT116 human colon cancer cells, under the normal physiological condition, auranofin alone), > 30 µM. Also, the “Cell survival rate (%) HCT116” value in series [3] (colon cancer, TGTA 50 μM) stood at 75 ± 5%. For the same compound, in series [3] (compound plus 10 μM auranofin, with 30% FBS, 50 μM for TGTA, β-mercaptoethanol, mercaptoethylamine, DEDT, listed as Auranofin = auranofin alone), the “Cell survival rate after addition of 10 μM auranofin (%)” value is 75 ± 5%. The compound also registered an uptake of gold in the series with HepG2 cells of 728 mg/g protein.
